The values below come from patent publication US20260262643A1, “HERBICIDAL BENZOXAZINES” (FMC CORPORATION, priority 2022, published 2026).

Molecules are shown by their SMILES.

The test system of experiment [1] is foxtail, giant. Kind of experiment: Test A postemergence. It counts as in vivo, Setaria faberi. To be noted: 1000 g ai/ha, Postemergence; 0 to 100 scale. From the text: (§1) Seeds of plant species selected from barnyardgrass (Echinochloa crusgalli), blackgrass (Alopecurus myosuroides), corn (Zea mays), foxtail, giant (giant foxtail, Setaria faberi), goosegrass (Eleusine indica), kochia (Bassia scoparia), oat, wild (wild oat, Avena fatua), pigweed, palmer (palmer amaranth, palmer pigweed, Amaranthus palmeri), Pigweed, Redroot (redroot pigweed, Amaranthus retroflexus), ragweed (common ragweed, Ambrosia artemisiifolia), ryegrass, Italian (italian ryegrass, Lolium multiflorum), soybean (Glycine max), and wheat (Triticum aestivum) were planted into a blend of loam soil and sand and treated preemergence with a directed soil spray using test chemicals formulated in a non-phytotoxic solvent mixture which included a surfactant. At the same time, plants selected from these crops and weed species and also galium (catchweed bedstraw, Galium aparine) and horseweed (Erigeron canadensis) were planted in pots containing the same blend of loam soil and sand and treated with postemergence applications of test chemicals formulated in the same manner. Plants ranged in height from 2 to 10 cm and were in the one- to two-leaf stage for the postemergence treatment. Treated plants and untreated controls were maintained in a greenhouse for 10 days, after which time all treated plants were compared to untreated controls and visually evaluated for injury. Plant response ratings, summarized in Table A, are based on a 0 to 100 scale where 0 is no effect and 100 is complete control. A dash (-) response means no test result.

Experiment [2] deals with ragweed. Nature of the experiment: Test A postemergence. Particulars: 1000 g ai/ha, Postemergence; 0 to 100 scale. It counts as in vivo, Ambrosia artemisiifolia.
Source text: as §1

Experiment [3] has as its system ragweed. Kind of experiment: Test A preemergence. The class given is in vivo, Ambrosia artemisiifolia. To be noted: 1000 g ai/ha, 0 to 100 scale (0 no effect, 100 complete control), 10 days.
Source text: as §1

In experiment [4] the test system is goosegrass. Nature of the experiment: Test A preemergence. The class given is in vivo, Eleusine indica. Particulars: 1000 g ai/ha, 0 to 100 scale (0 no effect, 100 complete control), 10 days.
Source text: as §1

The test system of experiment [5] is ryegrass, Italian. Kind of experiment: Test A preemergence. It counts as in vivo, Lolium multiflorum. Particulars: 1000 g ai/ha, 0 to 100 scale (0 no effect, 100 complete control), 10 days.
Source text: as §1

Experiment [6] deals with blackgrass. Nature of the experiment: Test A postemergence. The class given is in vivo, Alopecurus myosuroides. Particulars: 1000 g ai/ha, Postemergence; 0 to 100 scale.
Source text: as §1

In experiment [7] the test system is foxtail, giant. Nature of the experiment: Test A preemergence. The class given is in vivo, Setaria faberi. To be noted: 1000 g ai/ha, 0 to 100 scale (0 no effect, 100 complete control), 10 days.
Source text: as §1

Experiment [8] deals with pigweed, palmer. Nature of the experiment: Test A preemergence. The class given is in vivo, Amaranthus palmeri. To be noted: 1000 g ai/ha, 0 to 100 scale (0 no effect, 100 complete control), 10 days.
Source text: as §1

The test system of the next experiment is horseweed. Kind of experiment: Test A postemergence. It counts as in vivo, Erigeron canadensis. To be noted: 1000 g ai/ha, Postemergence; 0 to 100 scale.
Source text: as §1

The next experiment relates to galium. Nature of the experiment: Test A postemergence. It counts as in vivo, Galium aparine. Particulars: 1000 g ai/ha, Postemergence; 0 to 100 scale.
Source text: as §1

Experiment [9] has as its system kochia. Nature of the experiment: Test A postemergence. The class given is in vivo, Bassia scoparia. Particulars: 1000 g ai/ha, Postemergence; 0 to 100 scale.
Source text: as §1

Experiment [10] relates to pigweed, palmer. Nature of the experiment: Test A postemergence. It counts as in vivo, Amaranthus palmeri. To be noted: 1000 g ai/ha, Postemergence; 0 to 100 scale.
Source text: as §1

Experiment [11] has as its system blackgrass. Kind of experiment: Test A preemergence. The class given is in vivo, Alopecurus myosuroides. Particulars: 1000 g ai/ha, 0 to 100 scale (0 no effect, 100 complete control), 10 days.
Source text: as §1

Experiment [12] deals with kochia. Kind of experiment: Test A preemergence. It counts as in vivo, Bassia scoparia. To be noted: 1000 g ai/ha, 0 to 100 scale (0 no effect, 100 complete control), 10 days.
Source text: as §1

Experiment [13] has as its system goosegrass. Kind of experiment: Test A postemergence. It counts as in vivo, Eleusine indica. To be noted: 1000 g ai/ha, Postemergence; 0 to 100 scale.
Source text: as §1

Experiment [14] has as its system ryegrass, Italian. Nature of the experiment: Test A postemergence. The class given is in vivo, Lolium multiflorum. To be noted: 1000 g ai/ha, Postemergence; 0 to 100 scale.
Source text: as §1

As to `Cc1csc(-c2cccc(C(=O)N3C[C@H](C)Oc4c(Cl)cccc43)c2)n1` [Compound 124], the “Plant response rating, Foxtail, Giant” value was 40 with foxtail, giant [1] and 80 with foxtail, giant [7]. The “Plant response rating, Ragweed” value in the experiment with ragweed [2] and in the experiment on ragweed [3] was 0 in each case. Moreover, the results for the “Plant response rating, Goosegrass” value in the experiment on goosegrass [4] and in the experiment on goosegrass [13] were 60 and 0, respectively. In addition, the “Plant response rating, Ryegrass, Italian” value worked out at 60 in the experiment with ryegrass, Italian [5] and 0 in the experiment on ryegrass, Italian [14]. For the same compound, the “Plant response rating, Blackgrass” value in the experiment with blackgrass [6] and in the experiment with blackgrass [11] was 0 in each case. In addition, the “Plant response rating, Pigweed, Palmer” value in the experiment with pigweed, palmer [8] was 30; with pigweed, palmer [10] it was 60. Further, the “Plant response rating, Horseweed” value in the experiment with horseweed was found to be 0. For the same compound, in the experiment on galium, the “Plant response rating, Galium” value is reported as 30. Moreover, the “Plant response rating, Kochia” value with kochia [9] was 30; in the experiment with kochia [12] it was 0.
With `O=C(c1ccnc(-n2cncn2)c1)N1CC(CF)Oc2c(Cl)cccc21` (centres unmarked) [Compound 36], the “Plant response rating, Foxtail, Giant” value came out at 90 with foxtail, giant [1] and 100 with foxtail, giant [7]. Besides, the “Plant response rating, Ragweed” value in the experiment on ragweed [2] came out at 60; in the experiment on ragweed [3], 30. Also, the “Plant response rating, Goosegrass” value in the experiment with goosegrass [4] amounted to 90; in the experiment with goosegrass [13] it was 30. The “Plant response rating, Ryegrass, Italian” value in the experiment with ryegrass, Italian [5] was determined as 50; in the experiment with ryegrass, Italian [14], 40. The “Plant response rating, Blackgrass” value was 60 in the experiment on blackgrass [6] and 70 in the experiment with blackgrass [11]. Besides, the “Plant response rating, Pigweed, Palmer” value in the experiment on pigweed, palmer [8] stood at 40; in the experiment with pigweed, palmer [10] it was 60. In addition, the “Plant response rating, Horseweed” value in the experiment on horseweed was 0. In the experiment on galium, the “Plant response rating, Galium” value was 90. Further, the results for the “Plant response rating, Kochia” value in the experiment with kochia [9] and with kochia [12] were 60 and 20, respectively.
As for `Cc1noc(-c2cccc(C(=O)N3C[C@H](C)Oc4c(Cl)cccc43)c2)n1` [Compound 121], the “Plant response rating, Foxtail, Giant” value turned out to be 20 in the experiment with foxtail, giant [1] and 60 in the experiment with foxtail, giant [7]. Further, the “Plant response rating, Ragweed” value with ragweed [2] and in the experiment with ragweed [3] was 0 in each case. Further, the “Plant response rating, Goosegrass” value in the experiment with goosegrass [4] and in the experiment with goosegrass [13] was 0 throughout. In addition, the “Plant response rating, Ryegrass, Italian” value in the experiment on ryegrass, Italian [5] is given as 0; in the experiment on ryegrass, Italian [14], 0. The “Plant response rating, Blackgrass” value with blackgrass [6] and in the experiment with blackgrass [11] was 0 each time. The “Plant response rating, Pigweed, Palmer” value is reported as 60 in the experiment on pigweed, palmer [8] and 50 in the experiment with pigweed, palmer [10]. For the same compound, in the experiment on horseweed, the “Plant response rating, Horseweed” value amounted to 0. Moreover, in the experiment with galium, the “Plant response rating, Galium” value amounted to 80. The “Plant response rating, Kochia” value in the experiment with kochia [9] is listed as 70; with kochia [12], 0.
`Cc1nc(-c2cccc(C(=O)N3C[C@H](C)Oc4c(Cl)cccc43)c2)no1` [Compound 120]: the “Plant response rating, Foxtail, Giant” value was 20 in the experiment with foxtail, giant [1] and 20 in the experiment on foxtail, giant [7]. Further, the “Plant response rating, Ragweed” value with ragweed [2] and with ragweed [3] was 0 each time. For the same compound, the “Plant response rating, Goosegrass” value in the experiment on goosegrass [4] and in the experiment on goosegrass [13] was 10 in each case. The “Plant response rating, Ryegrass, Italian” value is listed as 10 in the experiment with ryegrass, Italian [5] and 0 in the experiment with ryegrass, Italian [14]. Further, the figures for the “Plant response rating, Blackgrass” value in the experiment with blackgrass [6] and with blackgrass [11] were 0 and 10, respectively. In addition, the “Plant response rating, Pigweed, Palmer” value in the experiment on pigweed, palmer [8] amounted to 0; in the experiment with pigweed, palmer [10] it was 40. Moreover, in the experiment on horseweed, the “Plant response rating, Horseweed” value is 0. The “Plant response rating, Galium” value in the experiment on galium is on record as 40. Further, the results for the “Plant response rating, Kochia” value in the experiment on kochia [9] and with kochia [12] were 50 and 0, respectively.
On to `C[C@H]1CN(C(=O)c2cccc(-n3cncn3)c2)c2cc([N+](=O)[O-])ccc2O1` [Compound 49], for which the “Plant response rating, Foxtail, Giant” value worked out at 10 with foxtail, giant [1] and 20 with foxtail, giant [7]. In addition, the “Plant response rating, Ragweed” value is given as 30 in the experiment with ragweed [2] and 0 in the experiment with ragweed [3]. Moreover, the “Plant response rating, Goosegrass” value worked out at 30 in the experiment on goosegrass [4] and 10 in the experiment on goosegrass [13]. Moreover, the “Plant response rating, Ryegrass, Italian” value in the experiment on ryegrass, Italian [5] amounted to 30; in the experiment with ryegrass, Italian [14] it was 30. Moreover, the “Plant response rating, Blackgrass” value in the experiment on blackgrass [6] and in the experiment on blackgrass [11] was 0 in each case. Moreover, the “Plant response rating, Pigweed, Palmer” value in the experiment on pigweed, palmer [8] is 0; with pigweed, palmer [10], 0. Besides, in the experiment with horseweed, the “Plant response rating, Horseweed” value came to 0. The “Plant response rating, Galium” value in the experiment on galium is listed as 30. For the same compound, the “Plant response rating, Kochia” value in the experiment with kochia [9] stood at 10; in the experiment with kochia [12], 0.
In the case of `Cc1nc(-c2cccc(C(=O)N3C[C@H](C)Oc4c(Cl)cccc43)c2)cs1` [Compound 125], the “Plant response rating, Foxtail, Giant” value is reported as 20 in the experiment on foxtail, giant [1] and 20 in the experiment with foxtail, giant [7]. In addition, the “Plant response rating, Ragweed” value with ragweed [2] stood at 0. Further, the figures for the “Plant response rating, Goosegrass” value with goosegrass [4] and with goosegrass [13] were 20 and 0, respectively. Besides, the “Plant response rating, Ryegrass, Italian” value with ryegrass, Italian [5] was determined as 60; in the experiment on ryegrass, Italian [14] it was 0. Also, the “Plant response rating, Blackgrass” value in the experiment with blackgrass [6] came out at 20; with blackgrass [11], 0. Further, the “Plant response rating, Pigweed, Palmer” value is 30 in the experiment on pigweed, palmer [8] and 40 with pigweed, palmer [10]. The “Plant response rating, Horseweed” value in the experiment on horseweed was 0. In addition, the “Plant response rating, Galium” value with galium came to 40. For the same compound, the “Plant response rating, Kochia” value in the experiment with kochia [9] was 50; in the experiment on kochia [12], 0.
